Columns and labels:
RIP3 [1] = target: T1, RIP3 (Homo sapiens, UniProt Q9Y572); assay: Basal S227 auto-phosphorylation of RIP3 in HT-29 cells (immunoblot); type: cell-based; design: RIP3-expressing HT-29 cells; endogenous in cells; host or cells: HT-29; conditions: 10 μM, 9 h
Method: (§1) Cells were rinsed in cold phosphate-buffered saline (PBS) and lysed in M2 buffer containing 20 mM Tris at pH 7, 0.5% NP-40, 250 mM NaCl, 3 mM EDTA, 3 mM EGTA, 2 mM DTT, 0.5 mM PMSF, 20 mM β-glycerol phosphate, 1 mM sodium vanadate, and 1 μg/mL leupeptin. The cell extracts were subjected to western blot analysis. For immunoprecipitation, lysates were mixed and precipitated with antibody and protein A-agarose beads overnight or for 4 h at 4 °C. Bound proteins were removed by boiling in SDS and resolved by SDS-PAGE, and immunoblotting was visualized by enhanced chemiluminescence (ECL, Amersham).
RIP3 kinase activity is essential for TNF-induced necroptosis, and human S227 auto-phosphorylation sites of RIP3 are required for the interaction of RIP3 with its substrate MLKL[13],[14], which is indispensable for downstream necroptotic cell death signaling. To test the possible effects of the RIP3 inhibitors on necroptosis, HT-29 cells were treated with the kinase inhibitors, and RIP3 kinase activity was determined by examining its phosphorylation status.
(§2) Fig. 2 Novel inhibitors can block RIP3 S227 phosphorylation. a Western blotting showing various kinase inhibitor effects on RIP3 S227 auto-phosphorylation. HT-29 cells were treated with four tested kinase inhibitors (1308, 1336, 1338, and 1371, 10 μM) for 9 h. As a control, KK5101 (Trk alpha inhibitor) and HS829 (IKK beta inhibitor) were also treated at a concentration of 10 μM for 9 h. Prototypical necroptosis stimuli (TNF + zVAD + either cycloheximide or SMAC mimetic; hereafter referred to as TCZ or TSZ) were applied for 6 h. […] HT-29 cells were treated with 4 tested kinase inhibitors for 24 h, and cell viability was analyzed by MTT assay or phase-contrast microscopy. […] HT-29 cells were pretreated with necrostatin-1 (Nec-1, 40 μM), dabrafenib (DAB, 10 μM) or necrosulfonamide (NSA, 1 μM) for 2 h and then treated with TSZ for 6 h. […] HT-29 cells were pretreated with four tested kinase inhibitors for 2 h and then treated with TSZ for 6 h. Cell lysates were analyzed by immunoblotting. f HT-29 cells were pretreated with Nec-1 (40 μM), DAB (5 μM) or HS-1371 (5 μM) for 2 h and then treated with TSZ for 4 h. Cell lysates were immunoprecipitated with anti-RIP3 antibody. Immunoprecipitates and total lysates were analyzed by Western blotting

p-MLKL = assay: Phospho-MLKL immunofluorescence in HT-29 cells; type: cell-based, human; conditions: HT-29, immunofluorescence
Method: HT-29 cells were fixed in 4% paraformaldehyde for 10 min. To stain phospho-MLKL, cells were permeabilized with 0.25% Triton X-100 for 10 min. After incubation in a blocking buffer (10% fetal bovine serum in DPBS) for 30 min, the primary antibody to phospho-MLKL was incubated overnight at 4 °C, and FITC-conjugated secondary antibody (goat anti-rabbit IgG, 1:250, dilution, Invitrogen) was incubated for 1 h at room temperature. A mounting medium containing DAPI (VECTASHIELD, Cat No. 94010, Vector Laboratories) was used for counterstaining. Representative images were taken by confocal microscope.
HT-29 cells were pretreated with four tested inhibitors for 2 h and then treated with TSZ (6 h for immunoblotting, 24 h for cell death assay). Cell lysates were analyzed by immunoblotting, and cell viability was analyzed by MTT assay or phase-contrast microscopy. The results are presented as the means ± SEM. *P < 0.05, **P < 0.01, ***P < 0.001. b Protection of necroptosis by HS-1371 treatment is similar with dabrafenib, which abolished downstream events. HT-29 cells were pretreated with various necroptosis inhibitors and HS-1371 before TSZ treatment. Cell lysates were analyzed by immunoblotting, and cell viability was analyzed by MTT assay (left panel). Cells were stained with phospho-MLKL antibody and analyzed by confocal fluorescence microscopy (middle panel), and cell death was further analyzed by FACS analysis after PI staining (right panel). c HS-1371 protects cells from TNF-induced necroptosis in a dose-dependent manner. HT-29 cells were pretreated with indicated concentrations of HS-1371 and then treated with TSZ (6 h for immunoblotting, 24 h for cell death assay). Cell lysates were analyzed by immunoblotting, and cell viability was analyzed by MTT assay or phase-contrast microscopy. The results are presented as means ± SEM. *P < 0.05, **P < 0.01, ***P < 0.001 TEXT PRINTED IN THE PICTURE: (b) TSZ: 20.7 | (b) TSZ + Nec-1: 5.8 | (b) TSZ + DAB: 5.5 | (b) TSZ + 1371: 6.8 DOUBTS OF THE COPYIST ABOUT THIS PICTURE: Panel b, flow cytometry plots: the red gate numbers are printed without a measure or unit, so none is given / Panel b: the 'Untreated' control plot prints 7.7; left out because it is not a substance

RIP3 [2] = target: T1, RIP3; assay: TNF (TSZ)-induced RIP3 and MLKL phosphorylation in HT-29 cells (immunoblot); type: cell-based; design: RIP3-expressing HT-29 cells; endogenous in cells; host or cells: HT-29; conditions: HT-29; Nec-1 40 μM, DAB 10 μM, NSA 1 μM pretreated 2 h, TSZ 6 h
Method: as §1, §2
(§3) TNFα Smac mimetic and the caspase inhibitor zVAD (hereafter referred to as TSZ) is a classical combination that is used to induce RIP3-mediated necroptotic cell death[10],[32]. We first verified that three established pharmacological inhibitors of necroptosis, necrostatin-1 (Nec-1), necrosulfonamide (NSA), and dabrafenib (DAB) could block TNF-induced necroptosis (Fig. 2d). Of these inhibitors, Nec-1 inhibits RIP1 kinase activity[33],[34], DAB inhibits RIP3 kinase activity, and NSA inhibits MLKL functions downstream of RIP3 phosphorylation. […] Next, we tested whether these four inhibitors would inhibit TNF-induced necroptosis signaling by blocking RIP3 kinase activity. […] The effect of HS-1371 on RIP3 kinase activity was compared with another RIP3 inhibitor, GSK’872[16].

RIP3 [3] = target: T1, RIP3; assay: S227 auto-phosphorylation of overexpressed RIP3 in 293T cells (immunoblot); type: cell-based; conditions: 293T cells transfected with Flag-hRIP3
Source text: as §3, with “GSK’872[16]. […]” for “GSK’872[16].”
(a) Overexpression of RIP3 could induce S227 phosphorylation without stimuli. […] After cells were harvested, cell lysates were analyzed by […]
kinase inhibitor. HT-29 cells were treated with HS -1371 or GSK’872 indicated concentrations for 9 h, and cell lysates were analyzed by immunoblotting.
(c) Cytotoxicity of HS-1371 was compared with GSK’872. HT-29 cells were treated with 2 kinase inhibitors for 24 h and cell viability was analyzed by MTT assay.
(d) Inhibition of MLKL phosphorylation by HS-1371 was compared with other two RIP3 kinases inhibitors, DAB (5 μM) and GSK’872 (5 μM). […] Cell lysates were analyzed by […]

T1 sequence (Q9Y572 whole entry): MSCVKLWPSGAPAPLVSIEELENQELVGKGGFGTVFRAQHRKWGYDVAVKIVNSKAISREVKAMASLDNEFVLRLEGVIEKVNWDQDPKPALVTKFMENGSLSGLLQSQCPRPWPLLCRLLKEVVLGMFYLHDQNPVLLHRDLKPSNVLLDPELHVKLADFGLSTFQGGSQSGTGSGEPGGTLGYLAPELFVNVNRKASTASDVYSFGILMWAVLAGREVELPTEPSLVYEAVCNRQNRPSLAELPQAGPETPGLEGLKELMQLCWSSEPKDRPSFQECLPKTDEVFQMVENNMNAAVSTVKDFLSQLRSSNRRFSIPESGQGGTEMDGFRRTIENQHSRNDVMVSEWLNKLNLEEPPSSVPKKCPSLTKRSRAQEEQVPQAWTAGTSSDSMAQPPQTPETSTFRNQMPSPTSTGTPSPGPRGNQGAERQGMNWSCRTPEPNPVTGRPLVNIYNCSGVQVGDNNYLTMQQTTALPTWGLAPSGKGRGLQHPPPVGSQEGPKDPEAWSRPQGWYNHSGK

In the case of `Fc1ccccc1Nc1ccnc2cc(-c3cnn(C4CCNCC4)c3)ccc12` [HS-1308], the “effect on S227 auto-phosphorylation of RIP3 at the basal level” value (“effect on S227 auto-phosphorylation” below) (RIP3 [1]) is reported as “inhibitory effect”.

`Fc1ccc(Oc2ccnc3cc(-c4cnn(C5CCNCC5)c4)ccc23)c(F)c1` [HS-1336] was tested, and the “effect on S227 auto-phosphorylation” value (RIP3 [1]) was “inhibitory effect”.

With `Fc1cccc(Oc2ccnc3cc(-c4cnn(C5CCNCC5)c4)ccc23)c1` [HS-1338] the “effect on S227 auto-phosphorylation” value (RIP3 [1]) was “inhibitory effect”.

For `CC(C)(C)c1nc(-c2cccc(NS(=O)(=O)c3c(F)cccc3F)c2F)c(-c2ccnc(N)n2)s1` [dabrafenib], the “p-MLKL detection / translocation after TSZ” value (p-MLKL) was “no detection of p-MLKL”, the “block of TNF-induced necroptosis (RIP3 phosphorylation)” value (“block of TNF-induced necroptosis” for short) (RIP3 [2]) was “could block” and the “S227 auto-phosphorylation of overexpressed RIP3” value (RIP3 [3]) was “inhibited”.

`CN1C(=O)C(Cc2c[nH]c3ccccc23)NC1=S` (stereo not shown) [necrostatin-1, reference compound] was tested, and the “p-MLKL detection / translocation after TSZ” value (p-MLKL) was “no detection of p-MLKL” and the “block of TNF-induced necroptosis” value (RIP3 [2]) was “could block”.

In the case of `COc1nccnc1NS(=O)(=O)c1ccc(NC(=O)/C=C/c2ccc([N+](=O)[O-])s2)cc1` [necrosulfonamide, reference compound], the “p-MLKL detection / translocation after TSZ” value (p-MLKL) is reported as “could not translocate into the plasma membrane” and the “block of TNF-induced necroptosis” value (RIP3 [2]) is reported as “could block”.
